Data: US5679708A, “Epoxysuccinic acid derivatives, their production and use” (Takeda Chemical Industries, Ltd., priority 1994, dated 1997)
Where a name gives a salt, the structure may show the parent alone.

Tests used:
[1] = system: bone resorption as enhanced by PTH (parathyroid hormone); assay: Determination of bone resorption suppressive activity (PTH-enhanced, isolated mouse femur culture); type: cell-based, female BALB/c mice; details: 168 h, test compound 10 μg/ml, PTH 1 μM, 7 days culture, total calcium content, 100x(Cp-Cs)/(Cp-Cc)
Experimental: Further, the compound (I) of this invention or salts thereof have an excellent activity of suppressing bone resorption. Their suppressive action against bone resorption as enhanced by PTH (parathyroid hormone) was determined by the method described below. The results are shown in [Table 3].
Determination of bone resorption suppressive activity
Femurs were aseptically isolated from female BALB/c mice at 8-10 weeks of age. After the bone marrow cavity was washed with a Ham's F-12 medium containing 10% (w/w) thermally inactivated fetal calf serum, 100 unit/ml penicillin G and 100 unit/ml streptomycin (hereinafter referred to as culture broth), each femur was added to 1 ml of the culture broth and precultured for 3 hours at 37° C. in the presence of 5% carbon dioxide gas and 95% air. Each bone was transferred to 1 ml of the culture broth supplemented with PTH (produced by Peptide Institute, Inc., final concentration of 1 μM) and the test compound (final concentration 10 μg/ml (and cultured for 7 more days, after which the total calcium content in the culture broth was determined using Calcium E-Test Wako (manufactured by Wako Pure Chemical Industries, Ltd.). The bone resorption suppressive activity of the test compound was calculated using the following equation:
Bone resorption suppressive activity(%)=100x(Cp-Cs)/(Cp-Cc)
Cc: Total calcium content in the culture broth containing neither PTH nor test compound
Cp: Total calcium content in the culture broth containing PTH
Cs: Total calcium content in the culture broth containing both PTH and test compound

[2] = target: T1, human recombinant cathepsin L (Homo sapiens, UniProt P07711); assay: Determination of cathepsin L inhibitory activity; type: biochemical; details: human recombinant cathepsin L 1 ng; 20 μM Z-Phe-Arg-7MCA; pH 5.5; 37° C., 20 minutes; read-out: Inhibitory activity potency IC50 (Cathepsin L) (converted)
T1 construct: they were identified as a precursor of human cathepsin L and a product processed therefrom; made in house; host or cells: mouse myeloma Sp2/0 cells stably transformed with pTBN-HCLneo (Sp-HCL26); secreted, purified from serum-free culture supernatant
T1 sequence (P07711 114-333): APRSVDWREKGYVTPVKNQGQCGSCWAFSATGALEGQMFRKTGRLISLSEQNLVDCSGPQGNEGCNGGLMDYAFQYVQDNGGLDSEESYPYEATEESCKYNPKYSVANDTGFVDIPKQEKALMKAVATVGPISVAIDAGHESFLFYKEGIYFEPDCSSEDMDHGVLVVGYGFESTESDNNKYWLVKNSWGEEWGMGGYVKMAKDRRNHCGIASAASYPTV
Experimental: (a) Determination of cathepsin L inhibitory activity
To 75 μl of a reaction mixture containing 1 ng of human recombinant cathepsin L (those produced in Reference Examples 1 through 7 below were employed), 2 μM of dithiothreitol (hereinafter abbreviated as DTT), 1 mM of ethylenediaminetetraacetate disodium salt, 0.1M of a sodium acetate buffer solution (pH 5.5) and various concentrations of the sample, 25 μl of 20 μM benzyloxycarbonyl-L-phenylalanyl-L-arginine-4-methylcoumaryl-7-amide (hereinafter simply referred to as Z-Phe-Arg-7MCA, manufactured by Peptide Institute, Inc.) was added to initiate the reaction, and the reaction mixture was incubated at 37° C. for 20 minutes, followed by addition of 100 μl of a solution containing 100 mM of sodium monochloroacetate to suspend the reaction. The amount of liberated 4-methyl-7-aminocoumarin was determined at an excitation wavelength of 365 nm and a fluorescence wavelength of 450 nm, using a fluorophotometer (FCA: manufactured by Baxter Labs). The sample concentration required to cause 50% inhibition was expressed as the IC50 value, with the fluorescence value obtained from the same reaction in the absence of the sample taken as 100%.

[3] = Toxicity study; type: in vivo; details: rats, orally, 300 mg/kg
Experimental: Compound 1 caused no death in rats when it was orally administered at 300 mg/kg.

[4] = target: T2, cathepsin B (Homo sapiens, UniProt P07858); assay: Determination of cathepsin B inhibitory activity; type: biochemical; details: cathepsin B 30 ng (Sigma); 20 μM Z-Phe-Arg-7MCA; pH 5.5; 37° C., 20 minutes; read-out: Inhibitory activity potency IC50 (TABLE 2, head printed Cathepsin L) (converted)
T2 construct: purchased Sigma Chemical Co
Experimental: (b) Determination of cathepsin B inhibitory activity
To 75 μl of a reaction mixture containing 30 ng of cathepsin B (produced by Sigma Chemical Co.), 2 μM DTT, 1 mM ethylenediaminetetraacetate disodium salt, 0.1M sodium acetate buffer (pH 5.5) and various concentrations of the sample, 25 μl of 20 μM Z-Phe-Arg-7MCA was added to initiate the reaction, and the reaction mixture was incubated at 37° C. for 20 minutes, followed by addition of 100 μl of a solution containing 100 mM sodium monochloroacetate to suspend the reaction. The amount of liberated 4-methyl-7-aminocoumarin was determined at an excitation wavelength of 365 nm and a fluorescence wavelength of 450 nm, using a fluorophotometer. The sample concentration required to cause 50% inhibition was expressed as the IC50 value, with the fluorescence value obtained from the same reaction in the absence of the sample taken as 100%.

Row | IC50 [2] [nM] | IC50 [4] [nM] | Structure (SMILES) | inhibition at 10 µg/mL [1] [%] | death after oral administration [3]
1 |  |  | O=C(NCCCO)[C@H](Cc1ccccc1)NC(=O)[C@H]1O[C@@H]1C(=O)O [Compound 4, N-[N-[(2S,3S)-3-trans-carboxyoxirane-2-carbonyl]-L-phenylalanyl]-3-amino-1-propanol monosodium salt] | 176 | 
2 | 8.56 |  | COCCCNC(=O)[C@H](Cc1ccccc1)NC(=O)[C@H]1O[C@@H]1C(=O)O [Compound 2, N-[N-[(2S,3S)-3-trans-carboxyoxirane-2-carbonyl]-L-phenylalanyl]-1-amino-3-methoxypropane monosodium salt] |  | 
3 |  |  | CCOC(=O)[C@H]1O[C@@H]1C(=O)N[C@@H](Cc1ccccc1)C(=O)NCCCOC [Compound 1, N-[N-[(2S,3S)-3-trans-ethoxycarbonyloxysirane-2-carbonyl]-L-phenylalanyl]-1-amino-3-methoxypropane] |  | no death
4 | 8.19 | 5.46 | CSCCCNC(=O)[C@H](Cc1ccccc1)NC(=O)[C@H]1O[C@@H]1C(=O)O [Compound 8, N-[N-[(2S,3S)-3-trans-carboxyoxirane-2-carbonyl]-L-phenylalanyl]-1-amino-3-methylthiopropane monosodium salt] | 142 | 

Row | Structure (SMILES) | IC50 [2] [nM] | IC50 [4] [nM] | inhibition at 10 µg/mL [1] [%] | death after oral administration [3]
5 | CC(=O)OCCCNC(=O)[C@H](Cc1ccccc1)NC(=O)[C@H]1O[C@@H]1C(=O)O [Compound 6, N-[N-[(2S,3S)-3-trans-carboxyoxirane-2-carbonyl]-L-phenylalanyl]-3-amino-acetoxypropane monosodium salt] | 13.2 |  | 144 | 
